These results are taken from patent US11186599B2, “Phosphonamide ester compound, salt thereof, related crystal form thereof, preparation method therefor and use thereof” (SICHUAN KELUN-BIOTECH BIOPHARMACEUTICAL CO., LTD., priority 2018, dated 2021).

≈ marks a conversion by molar mass, not a printed value. Like-named read-outs stand apart in the source and are kept apart here.

A short description of data set [1]: Solubility determination (shaking 24 hours, HPLC). Type of data set: physicochemical. Conditions: for solubility at 24 h: thermodynamic from solid, shaking 24 hours. The protocol:
An aqueous solution of pH 2.0 (the pH was adjusted with an appropriate amount of hydrochloric acid), an aqueous solution of pH 7.4 (the pH was adjusted with 10 mM potassium dihydrogen phosphate and an appropriate amount of NaOH), and a fasted-state simulated intestinal fluid (FaSSIF) were prepared as solvents, respectively. Several portions of the sample for test, 1 mg each, were weighed and dissolved in different solvents, 1 mL each. The solutions were thoroughly shaked, and then subjected to ultrasonic operation for 5 minutes. […] After shaking in a constant temperature shaking water bath for 24 hours, filtration was carried out through a 0.45 uM aqueous filter membrane, followed by HPLC analysis for determination of the solubility.

A short description of data set [2]: Hygroscopicity test by dynamic vapor sorption (DVS). Format: physicochemical. To be noted: 25° C. On the procedure:
The hygroscopicity of crystalline forms A and B of the fumarate salt was measured by dynamic vapor sorption (DVS) using a DVS Intrinsic (SMS) at 25° C. in a cycle-DMDT mode.

A short description of data set [3]: Physicochemical stability test, placed open at 40° C./75% RH. Conditions: placed open 14 days at 40° C./75% RH. The protocol:
An appropriate amount of crystalline form A of the fumarate salt of the compound of Formula (I) of the invention was detected for the physicochemical stability thereof under the following conditions: placed open for 14 days at 40° C./75% RH. XRPD and LC-MS analysis were then carried out to determine the crystalline form and the change in purity.

Data set [4] is described as follows: Pharmacokinetic experiment in beagle dogs. To be noted: 2.5 mg/kg, capsules intragastrically. Type of data set: in vivo. The protocol: The crystalline forms A and C of the fumarate salt of the compound of Formula (I) were encapsulated into capsules and administered intragastrically to beagle dogs at a dose of 2.5 mg/kg. Venous blood was collected at different time points after administration and separately subjected to the detection of the original free base form of the compound of Formula (I) and its metabolite tenofovir (TFV).

The conditions of data set [5]: phase III clinical trial, cited from earlier work.
Setting [6] is: beagle, dog, venous blood, po, analyte: free base of the compound of Formula (I).
The mark [7] stands for this setting: analyte: free base of the compound of Formula (I), listed as crystalline form A of the fumarate salt.
Where [8] appears, read: analyte: free base of the compound of Formula (I), listed as crystalline form C of the fumarate salt.

For orientation: solubility means the concentration that dissolves in the medium under given conditions. A word on the AUC(0-inf): it is total exposure, with the tail of the curve extrapolated. The low end stands for low exposure, the high end for high exposure. One may read the AUC(0-t) as the area under the concentration-time curve up to a stated or last time point. A low value points to less exposure. As usually defined, the half-life is how long it takes for the measured level to halve. As usually defined, the Cmax is the maximum level reached in the sampled fluid or tissue. By Tmax is commonly meant the time at which the peak concentration occurs.

With `C[C@H](Cn1cnc2c(N)ncnc21)OC[P@@](=O)(NCCOCc1ccccc1)Oc1ccccc1` [listing 1 of 3 here], the solubility at 24 h in data set [1] (aqueous solution of pH 2.0, simulated gastric fluid, aqueous solution pH 2.0 (hydrochloric acid), read-out: Solubility, H2O (pH 2.0)) was 1000 µg/mL (≈ 2010 µM); in data set [1] (aqueous solution of pH 7.4, aqueous buffer, aqueous solution pH 7.4 (10 mM potassium dihydrogen phosphate/NaOH), read-out: Solubility, H2O (pH 7.4)), 990 µg/mL (≈ 1990 µM); in data set [1] (fasted-state simulated intestinal fluid (FaSSIF), FaSSIF, read-out: Solubility, fasted-state simulated intestinal fluid (FaSSIF)) it was 910 µg/mL (≈ 1830 µM). For the same compound, in data set [1] (water and fasted-state intestinal fluid), the “Solubility (in words)” value was “good solubility”. For the same compound, the “Hygroscopicity (in words)” value in data set [2] (DVS) is “little or no hygroscopicity”. Besides, the “Mass change caused by moisture absorption (%)” value (from here on “Mass change caused … (%)”) in data set [2] (target humidity 0%) was 0%; in data set [2] (target humidity 10%) it was 0.019%; in data set [2] (target humidity 20%, listed as crystalline form A of the fumarate salt), 0.04%; in data set [2] (target humidity 30%), 0.057%; in data set [2] (target humidity 40%), 0.078%; in data set [2] (target humidity 50%) it was 0.096%. Also, the “Mass change caused … (%)” value in data set [2] (target humidity 60%) is on record as 0.117%; in data set [2] (target humidity 70%), 0.137%; in data set [2] (target humidity 80%) it was “less than 0.2%”; in data set [2] (target humidity 80%, listed as crystalline form A of the fumarate salt) it was 0.158%; in data set [2] (target humidity 90%), “less than 0.2%”; in data set [2] (target humidity 90%, listed as crystalline form A of the fumarate salt), 0.192%. The “Relative purity after storage” value in data set [3] (LC-MS) is “up to 99%”. In data set [3] (XRPD and LC-MS), the “Change after storage (crystalline form and purity, in words)” value was “without significant change”. This compound also came in with an AUC(0-inf) in data set [4] (setting [6]) of 66.7 ng·h/mL. Moreover, the area under the curve AUC(0-t) in data set [4] (setting [6]) is 66.2 ng·h/mL. For the same compound, the half-life in data set [4] (setting [6]) was 33 min. Moreover, in data set [4] (beagle, dog, venous blood, po, analyte: free base of the compound of Formula (I), read-out: Cmax), the Cmax was 67.4 ng/mL. In addition, the “Conversion to TFV (in words)” value in data set [4] is reported as “rapidly converted to TFV”. In data set [4] (setting [7]), the MRTINF was determined as 73.2 min. Besides, the Tmax in data set [4] (setting [7]) was determined as 41.4 min.
With `C[C@H](Cn1cnc2c(N)ncnc21)OC[P@@](=O)(NCCOCc1ccccc1)Oc1ccccc1` [listing 2 of 3 here], in data set [2] (target humidity 20%), the “Mass change caused … (%)” value was 0.2%.
Turning to `C[C@H](Cn1cnc2c(N)ncnc21)OC[P@@](=O)(NCCOCc1ccccc1)Oc1ccccc1` [listing 3 of 3 here], in data set [4] (setting [8]), the AUCINF is 43.4 ng·h/mL, the AUClast was determined as 41.7 ng·h/mL, the Cmax is 77.5 ng/mL and the MRTINF amounted to 33.6 min. In data set [4] (setting [8]), the T1/2 worked out at 17.4 min and the Tmax is 18.6 min.
As to `CC(C)OC(=O)[C@H](C)N[P@](=O)(CO[C@H](C)Cn1cnc2c(N)ncnc21)Oc1ccccc1` [TAF, Tenofovir alafenamide], in data set [5] (patients), the ALT recovery rate entry is “lower than 80%”. Further, in data set [5] (share of patients), the “Patients in whom glomerular filtration rate decreased by more than 25%” value is recorded as “more than 10%” and the “Patients in whom spinal bone mineral density (BMD) decreased by more than 5%” value was “more than 10%”.
